The values below come from patent US9421237B2, “Tripeptide boronic acid or boronic ester, preparative method and use thereof” (PEKING UNIVERSITY, priority 2009, dated 2016).

What is called IC50 is the concentration that gives 50% inhibition. Broadly, the melting point is the temperature, or range, at which the solid turns liquid. The inhibition is the change of the read-out against control, counted positive when it falls.

The target in series [1] is T1, 20S proteasome extracted from rat liver, chymotryptic-like (CT-L) activity (Rattus norvegicus, UniProt P18421+P28075).
T1 construct: 20S proteasome extracted from rat liver; from tissue; host or cells: rat liver
The experiment in a line: Proteasome inhibition, chymotryptic-like (CT-L) activity, fluorescent peptide Suc-leu-leu-Val-Tyr-AMC. As to conditions: rat liver 20S proteasome, 37° C., 1 h. It counts as biochemical. Here is the method: (§1) The activities of the proteasome were assayed using fluorescent peptides: Suc-leu-leu-Val-Tyr-AMC (Suc represents succinyl, and AMC represents 7-amino-4-methylcoumarin, purchased from SIGMA) for determining chymotryptic-like (CT-L) activity; Z-Ala-Arg-Arg-AMC (Z represents benzyloxycarbonyl, purchased from Calbiochem) for determining trypsin-like (TL) activity; and Z-leu-leu-Glu-βNA (βNA represents β-naphtylamide, purchased from SIGMA) for determining peptidyl-glutamyl-peptide-hydrolyzing (PGPH) enzyme activity.
(§2) Method for the aforesaid activity assays is as follows: 1 μg of 20S proteasome extracted from rat liver was incubated with a 100 μL solution containing various concentrations of compounds, 50 μM fluorescent peptides and 20 mM Tris-HCl at 37° C. for 1 h, respectively. The fluorescence released from AMC and RNA reagents was measured by a spectrofluorimeter Fluostar OPTIMA and BMG Germany at excitation/emission wavelengths of 380/440 nm and 335/410 nm, respectively. 0.1% DMSO was used as a solvent control. Compared with the fluorescence of solvent control, an inhibition rate was calculated.

The target of series [2] is T2, 20S proteasome extracted from rat liver, peptidyl-glutamyl-peptide-hydrolyzing (PGPH) enzyme activity (Rattus norvegicus, UniProt P28073+Q9JHW0).
T2 construct: 20S proteasome extracted from rat liver; from tissue; host or cells: rat liver
Description: Proteasome inhibition, PGPH activity, fluorescent peptide Z-leu-leu-Glu-βNA. It counts as biochemical. As to conditions: rat liver 20S proteasome, 37° C., 1 h. Here is the method: as §1
as §2, with “calculated. Said assays used anticancer drug bortezomib (leukemia drug), namely PS341 as compound for positive control.” for “calculated.”

The target in series [3] is T3, 20S proteasome extracted from rat liver, trypsin-like (TL) activity (Rattus norvegicus, UniProt P40112+Q9JHW0).
T3 construct: 20S proteasome extracted from rat liver; from tissue; host or cells: rat liver
Description: Proteasome inhibition, trypsin-like (TL) activity, fluorescent peptide Z-Ala-Arg-Arg-AMC. It counts as biochemical. The note with it: rat liver 20S proteasome, 37° C., 1 h; read-out: T-L (IC50). Here is the method: as §1
as §2, with “calculated. Said assays used anticancer drug bortezomib (leukemia drug), namely PS341 as compound for positive control.” for “calculated.”

The test system of series [4] is BGC-823 human gastric cancer cell. The experiment in a line: Preliminary anti-tumor screening in vitro, SRB method. It counts as cell-based. On the set-up: key to Test results: +++: inhibition rates at three doses are greater than 50%; ++: inhibition rates at two doses are greater than 50%; +: inhibition rate at one dose is greater than 50%. The note with it: BGC-823, SRB; for Test results: number of doses with inhibition > 50%; for inhibition at 0.05 µM / inhibition at 0.5 µM / inhibition at 5 µM: Homo sapiens, read-out: Inhibition rate %. Here is the method: (§3) The test methods used in this test example is the routine method for anti-tumor activities test in pharmaceutical area, for example, referring to the following reference: (J. Immunol Method, 1983, 65, 55).
(§4) Test models: A: MTT method (HL-60 human leukemia); B: SRB method (BGC-823 human gastric cancer); C: SRB method (Bel-7402 human hepatocarcinoma); D: SRB method (KB human nasopharyngeal carcinoma).
(§5) The aforesaid tests were carried out with the compounds of Examples 1-26 in the present invention, test results are shown in Tables 2-5.
In general terms: The SRB assay estimates cell density from bound dye.

Series [5] relates to KB human nasopharyngeal carcinoma cell. Described as above. As to conditions: for inhibition at 0.05 µM / inhibition at 0.5 µM / inhibition at 5 µM: Homo sapiens, read-out: Inhibition rate %; for Test results: number of doses with inhibition > 50%. Type of series: cell-based. On the set-up: key to Test results: +++: inhibition rates at three doses are greater than 50%; ++: inhibition rates at two doses are greater than 50%; +: inhibition rate at one dose is greater than 50%. Here is the method: as §3, §4, §5

The subject of series [6] is Bel-7402 human hepatocarcinoma cell. Described as above. Set-up: key to Test results: +++: inhibition rates at three doses are greater than 50%; ++: inhibition rates at two doses are greater than 50%; +: inhibition rate at one dose is greater than 50%. The note with it: Bel-7402, SRB; for Test results: number of doses with inhibition > 50%; for inhibition at 0.05 µM / inhibition at 0.5 µM / inhibition at 5 µM: Homo sapiens, read-out: Inhibition rate %. It counts as cell-based. Here is the method:
as §3, §4, §5

For series [7], the system named is HL-60 human leukemia cell. Description: Preliminary anti-tumor screening in vitro, MTT method. On the set-up: key to Test results: +++: inhibition rates at three doses are greater than 50%; ++: inhibition rates at two doses are greater than 50%; +: inhibition rate at one dose is greater than 50%. As to conditions: HL-60, MTT; for Test results: number of doses with inhibition > 50%; for inhibition at 0.05 µM / inhibition at 0.5 µM / inhibition at 5 µM: Homo sapiens, read-out: Inhibition rate %. It counts as cell-based. Here is the method: as §3, §4, §5
(Tetrazolium dyes change colour on reduction, which living cells bring about.)

The test system of the next series is murine H22 cells. The experiment in a line: In vivo anti-tumor activity, H22 tumor in ICR mice, oral administration. As to conditions: 1 mg/kg orally once per day for 10 days. Here is the method:
Animal: ICR mice, half male and half female (18-22 g), provided by Laboratory Animal Science Department of Peking Medical University.
Tumor cell strain: murine H22 cells were provided by cell bank of pharmacological group of the State Key Laboratory of Natural and Biomimetic Drugs.
Method: Murine tumor cells were taken to be treated, and diluted to 5×10^6 cells/ml after treatment. The diluted tumor cells solution was inoculated to the left forelimb oxter of the mice with 0.2 ml/mouse under aseptic condition. 24 h after inoculation, the mice were divided into groups and orally administered once per day to the mice in each group for 10 days. At the 12th day, the tumors were peeled off and weighed, and the average weight of the tumor, standard deviation (SD) and p-value of each group were calculated.

For the compound `CC(C)C[C@H](NC(=O)[C@H](Cc1ccccc1)NC(=O)[C@H](CC(C)C)NC(=O)c1cnccn1)B1OC2CC3C[C@@H](C3(C)C)[C@]2(C)O1` (stereo partly drawn) [Compound 5e, Pinanediol N-pyrazineformyl-L-leucyl-L-phenylalanyl-L-leucine Borate], the melting point lay within 63 to 65 °C. This compound registered an IC50 in [1] of 0.000431 ± 8.6e-05 µM. The IC50 in series [2] was 0.003405 ± 2.1e-05 µM. Further, in series [3], the IC50 was more than 0.02 µM.
`CC(C)C[C@H](NC(=O)[C@H](CC(C)C)NC(=O)[C@H](Cc1ccc2ccccc2c1)NC(=O)c1cnccn1)B1OC2CC3C[C@@H](C3(C)C)[C@]2(C)O1` (stereo partly drawn) [Compound 5m, Pinanediol N-pyrazineformyl-L-naphthylalanyl-L-leucyl-L-leucine Borate]: the melting point is 99 to 100 °C. For the same compound, the IC50 in [1] amounted to 0.000345 ± 0.000106 µM. Besides, in series [4], the Test results was “++”, the inhibition at 0.05 µM turned out to be 46%, the inhibition at 0.5 µM was determined as 84.5% and the inhibition at 5 µM was found to be 97.2%. Also, in series [5], the inhibition at 0.05 µM came out at 8.59%, the inhibition at 0.5 µM worked out at 85.6%, the inhibition at 5 µM was 96.2% and the Test results is “++”. Further, in series [6], the Test results is on record as “++”, the inhibition at 0.05 µM is 6.49%, the inhibition at 0.5 µM is 52.6% and the inhibition at 5 µM is 95.7%. Moreover, in series [7], the Test results is “++”, the inhibition at 0.05 µM was 11.2%, the inhibition at 0.5 µM is 82.7% and the inhibition at 5 µM was 87.9%. Moreover, the IC50 in series [3] is more than 0.02 µM.
For `CC(C)C[C@H](NC(=O)[C@H](Cc1ccccc1)NC(=O)[C@H](Cc1c[nH]c2ccccc12)NC(=O)c1cnccn1)B(O)O` [Compound 6i, N-pyrazineformyl-L-tryptophyl-L-phenylalanyl-L-leucine Boronic Acid], the IC50 in series [1], in series [2] and in series [3] was more than 0.02 µM in each case.
As to `CC(C)C[C@H](NC(=O)[C@H](Cc1ccc2ccccc2c1)NC(=O)[C@H](Cc1ccc2ccccc2c1)NC(=O)c1cnccn1)B1OC2CC3C[C@@H](C3(C)C)[C@]2(C)O1` (stereo partly drawn) [Compound 5h, Pinanediol N-pyrazineformyl-L-naphthylalanyl-L-naphthylalanyl-L-leucine Borate], the melting point fell in the range of 136 to 137 °C. In addition, inhibition in series [1] was half-maximal at 0.000495 ± 9.2e-05 µM (IC50). Besides, in series [4], the Test results was “+++”, the inhibition at 0.05 µM is 55%, the inhibition at 0.5 µM was 89% and the inhibition at 5 µM amounted to 95.4%. For the same compound, in series [5], the inhibition at 0.05 µM stood at 20.8%, the inhibition at 0.5 µM was 91.2%, the inhibition at 5 µM worked out at 94.6% and the Test results is listed as “++”. In series [6], the Test results is recorded as “++”, the inhibition at 0.05 µM was determined as 13.1%, the inhibition at 0.5 µM was 51.7% and the inhibition at 5 µM worked out at 91%. In series [7], the Test results is “++”, the inhibition at 0.05 µM amounted to 11.4%, the inhibition at 0.5 µM turned out to be 85.5% and the inhibition at 5 µM amounted to 88.3%. In series [3], the IC50 is more than 0.02 µM.
For the compound `CC(C)C[C@H](NC(=O)[C@H](CC1=CNC2C=CC=CC12)NC(=O)[C@H](Cc1ccccc1)NC(=O)c1cnccn1)B1OC2CC3C[C@@H](C3(C)C)[C@]2(C)O1` (stereo partly drawn) [Compound 5j], the IC50 in series [1], in [2] and in series [3] was more than 0.02 µM throughout.
The compound `CC(C)C[C@H](NC(=O)[C@H](CC(C)C)NC(=O)[C@H](Cc1ccccc1)NC(=O)c1cnccn1)B(O)O` [Compound 6k, N-pyrazineformyl-L-phenylalanyl-L-leucyl-L-leucine Boronic Acid] returned a melting point of 116 to 118 °C. In [1], the IC50 amounted to 0.000173 ± 3.3e-05 µM. This compound gave an IC50 in series [2] of 0.00566 ± 0.000839 µM. Further, the half-maximal inhibitory concentration (IC50) in series [3] is more than 0.02 µM.
For the compound `CC(C)C[C@H](NC(=O)[C@H](CC(C)C)NC(=O)[C@H](CC(C)C)NC(=O)c1cnccn1)B(O)O` [Compound 6l, N-pyrazineformyl-L-leucyl-L-leucyl-L-leucine Boronic Acid], the IC50 in series [1], in [2] and in series [3] was more than 0.02 µM each time.
`CC(C)C[C@H](NC(=O)[C@H](Cc1ccc2ccccc2c1)NC(=O)[C@H](Cc1ccccc1)NC(=O)c1cnccn1)B1OC2CC3C[C@@H](C3(C)C)[C@]2(C)O1` (stereo partly drawn) [Compound 5g, Pinanediol N-pyrazineformyl-L-phenylalanyl-L-naphthylalanyl-L-leucine Borate]: the melting point fell in the range of 97 to 98 °C. In [1], this compound came in with a 50% inhibitory concentration (IC50) of 0.000443 ± 8.1e-05 µM. In series [4], the Test results is listed as “+++”, the inhibition at 0.05 µM was 77.6%, the inhibition at 0.5 µM came to 95.4% and the inhibition at 5 µM amounted to 95.9%. For the same compound, in series [5], the inhibition at 0.05 µM amounted to 62.8%, the inhibition at 0.5 µM stood at 95.5%, the inhibition at 5 µM came out at 96.5% and the Test results was “+++”. For the same compound, in series [6], the Test results is “++”, the inhibition at 0.05 µM worked out at 46.7%, the inhibition at 0.5 µM came out at 77.7% and the inhibition at 5 µM is 94.7%. Also, in series [7], the Test results is given as “++”, the inhibition at 0.05 µM was -5.06%, the inhibition at 0.5 µM is 87.5% and the inhibition at 5 µM was 88.3%. Moreover, the half-maximal inhibitory concentration (IC50) in series [3] is more than 0.02 µM.
For `CC(C)C[C@H](NC(=O)[C@H](Cc1c[nH]c2ccccc12)NC(=O)[C@H](Cc1ccccc1)NC(=O)c1cnccn1)B(O)O` [Compound 6j, N-pyrazineformyl-L-phenylalanyl-L-tryptophyl-L-leucine Boronic Acid], the IC50 in series [1], in series [2] and in series [3] was more than 0.02 µM throughout.
Take `CC(C)C[C@H](NC(=O)[C@H](Cc1ccccc1)NC(=O)c1cnccn1)B(O)O` [PS341, Bortezomib, reference compound]: in the series with murine H22 cells (ICR mice with H22), the “Body weight (g) (X ± SD)” value was determined as 0.65 ± 2.07 g. Besides, in the series with murine H22 cells (tumors weighed at 12th day), the “Inhibition rate (%)” value turned out to be 62.05% and the “Tumor weight (g) (X ± SD)” value came out at 0.47 ± 0.20 g. For the same compound, in series [3], the IC50 is more than 0.02 µM.
